Numbered stars: 1 amine (or outer) side, 2 acyl side, 3 side chain; on linkers, the order of the positions; unused ones are H or OH. Bridge positions count the residues as written; N and C are the ends. Square brackets hold non-standard residues; d marks the D form. Peptide text beside a SMILES is read from it. * marks the point of attachment. hPhe(3-Cl-4-CF3) = N[C@@H](CCc1ccc(C(F)(F)F)c(Cl)c1)C(=O)O; hPhe(4-CF3) = N[C@@H](CCc1ccc(C(F)(F)F)cc1)C(=O)O; X103 = O=C([C@H](CCc1c(F)cccc1Cl)N[*:1])[*:2]; 3Oxa8azabicyclo(3.2.1)octane = C1CC2COCC1N2*; NMePhe(4-Cl) = CN[C@@H](Cc1ccc(Cl)cc1)C(=O)O; NEtPhe(2-Cl) = CCN[C@@H](Cc1ccccc1Cl)C(=O)O; NMePhe(4-Me) = CN[C@@H](Cc1ccc(C)cc1)C(=O)O; NMedβ3hAla = C[C@H](CC(=O)[*:2])N(C)[*:1]; NMeAla(cPent) = CN[C@@H](CC1CCCC1)C(=O)O; NMeGly(cPent) = CN[C@H](C(=O)O)C1CCCC1; NMe3Pal = CN[C@@H](Cc1cccnc1)C(=O)O; NMeCha = CN[C@@H](CC1CCCCC1)C(=O)O; NMeChg = CN[C@H](C(=O)O)C1CCCCC1; NMeF = CN[C@@H](Cc1ccccc1)C(=O)O; NMeI = CC[C@H](C)[C@H](NC)C(=O)O; NMeD = CN[C@@H](CC(=O)O)C(=O)O; NMeL = CN[C@@H](CC(C)C)C(=O)O; NMeV = CN[C@H](C(=O)O)C(C)C; d(β3hA) = C[C@@H](N)CC(=O)O; Pip = O=C(O)[C@@H]1CCCCN1; NMeA = CN[C@@H](C)C(=O)O; Pyrrolidide = C1CCN(*)C1; dNMeA = CN[C@H](C)C(=O)O; Ac5c = NC1(C(=O)O)CCCC1; Aze = O=C(O)[C@@H]1CCN1; Sar = CNCC(=O)O

The assay addresses protein-protein interaction between Kras and SOS1 (biotin-tagged human Kras loaded with GDP, His-tagged human SOS1) (Homo sapiens (Human), UniProt P01116, G12D). The assay can be described thus: Protein-protein interaction inhibition between Kras and SOS1 (KrasG12D-SOS PPI) using AlphaScreen.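 Note: kras produced in E. coli, Ni-coupled donor beads and streptavidin acceptor beads, excitation 680 nm with emission detected at 520–620 nm via singlet oxygen transfer.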 The assay is classed as biochemical. To be noted: AlphaScreen; biotin-tagged human Kras loaded with GDP, His-tagged human SOS1; read-out: KRAS G12D-SOS PPI IC50. For orientation: Bead proximity is the source of the signal in Alpha formats.
One may read the IC50 as the concentration that inhibits the measured activity by half. Regarding `CC[C@H](C)[C@@H]1NC(=O)[C@H](CC(C)C)N(C)C(=O)C[C@@H](C)N(C)C(=O)[C@H](C(C)C)N(C)C(=O)C2(CCCC2)NC(=O)[C@@H]2CCCN2C(=O)[C@H](CCc2ccc(C(F)(F)F)c(Cl)c2)NC(=O)CN(C)C(=O)[C@H](CC2CCCC2)N(C)C(=O)CN(C)C(=O)CN(C)C1=O` [Compound 88] (cyclo([Ac5c][NMeV][NMedβ3hAla][NMeL]I[Sar][Sar][NMeAla(cPent)][Sar][hPhe(3-Cl-4-CF3)]P)), the IC50 is 0.018 µM.

For `CC[C@H](C)[C@@H]1NC(=O)[C@H](C)N(C)C(=O)C[C@@H](C)NC(=O)[C@H](CC(C)C)N(C)C(=O)[C@H](Cc2ccccc2)N(C)C(=O)[C@H](CC(C)C)NC(=O)[C@H](CCc2c(F)cccc2Cl)NC(=O)CN(C)C(=O)[C@H](Cc2ccc(Cl)cc2)N(C)C(=O)CN(C)C(=O)CN(C)C1=O` [Compound 2092] (cyclo(I[Sar][Sar][NMePhe(4-Cl)][Sar][X103]L[NMeF][NMeL][d(β3hA)][NMeA])), the IC50 came out at 0.35 µM.

Take `CC[C@H](C)[C@@H]1NC(=O)[C@H](CC(C)C)N(C)C(=O)C[C@@H](C(=O)N2CCCC2)N(C)C(=O)[C@H](C2CCCCC2)N(C)C(=O)C2(CCCC2)NC(=O)[C@H](Cc2cccnc2)N(C)C(=O)[C@H](CCc2ccc(C(F)(F)F)c(Cl)c2)NC(=O)CN(C)C(=O)[C@H](CC2CCCCC2)N(C)C(=O)CN(C)C(=O)CN(C)C1=O` [Compound 1693] ([NMeL]I[Sar][Sar][NMeCha][Sar][hPhe(3-Cl-4-CF3)][NMe3Pal][Ac5c][NMeChg][NMeD]-Pyrrolidide; lactam N-11): the IC50 amounted to 0.0017 µM.

Consider `CC[C@H](C)[C@@H]1NC(=O)[C@@H]2CCCCN2C(=O)C[C@@H](C)NC(=O)[C@H](CC(C)C)N(C)C(=O)C2(CCCC2)NC(=O)[C@@H]2CCCN2C(=O)[C@H](CCc2ccc(C(F)(F)F)cc2)NC(=O)CN(C)C(=O)[C@H](Cc2ccc(Cl)cc2)N(C)C(=O)CN(C)C(=O)CN(C)C1=O` [Compound 227] (cyclo([Ac5c][NMeL][d(β3hA)][Pip]I[Sar][Sar][NMePhe(4-Cl)][Sar][hPhe(4-CF3)]P)), for which the IC50 is 0.082 µM.

Turning to `CC[C@H](C)[C@@H]1NC(=O)[C@H](CC(C)C)N(C)C(=O)C[C@@H](C(=O)N2C3CCC2COC3)N(C)C(=O)[C@H]([C@@H](C)CC)N(C)C(=O)C2(CCCC2)NC(=O)[C@@H]2CCCN2C(=O)[C@H](CCc2ccc(C(F)(F)F)c(Cl)c2)NC(=O)CN(C)C(=O)[C@H](C2CCCC2)N(C)C(=O)[C@@H]2CCN2C(=O)[C@H](C)N(C)C1=O` [Compound 1002] ([NMeL]I[NMeA][Aze][NMeGly(cPent)][Sar][hPhe(3-Cl-4-CF3)]P[Ac5c][NMeI][NMeD]-{3Oxa8azabicyclo(3.2.1)octane}; lactam N-11), the IC50 amounted to 0.0021 µM.

With `CC[C@H](C)[C@@H]1NC(=O)[C@H](CC(C)C)N(C)C(=O)C[C@@H](C)NC(=O)[C@H](C(C)C)N(C)C(=O)C2(CCCC2)NC(=O)[C@@H]2CCCN2C(=O)[C@H](CCc2ccc(C(F)(F)F)c(Cl)c2)NC(=O)CN(C)C(=O)[C@H](CC2CCCCC2)N(C)C(=O)[C@@H]2CCN2C(=O)CN(C)C1=O` [Compound 663] (cyclo([Ac5c][NMeV][d(β3hA)][NMeL]I[Sar][Aze][NMeCha][Sar][hPhe(3-Cl-4-CF3)]P)), the IC50 turned out to be 0.016 µM.

Take `CC[C@H](C)[C@@H]1NC(=O)[C@H](C)N(C)C(=O)C[C@@H](C)NC(=O)[C@H](C(C)C)N(C)C(=O)C2(CCCC2)NC(=O)[C@@H]2CCCN2C(=O)[C@H](CCc2ccc(C(F)(F)F)c(Cl)c2)NC(=O)[C@@H](C)N(C)C(=O)[C@H](CC2CCCCC2)N(C)C(=O)[C@@H]2CCN2C(=O)[C@@H]2CCN2C1=O` [Compound 2013] (cyclo([Ac5c][NMeV][d(β3hA)][NMeA]I[Aze][Aze][NMeCha][dNMeA][hPhe(3-Cl-4-CF3)]P)): the IC50 was 0.15 µM.

As for `CC[C@H](C)[C@@H]1NC(=O)[C@H](CC(C)C)N(C)C(=O)C[C@@H](C(=O)N(C)C)N(C)C(=O)[C@H]([C@@H](C)CC)N(C)C(=O)C2(CCCC2)NC(=O)[C@H](Cc2ccccc2Cl)N(CC)C(=O)[C@H](CCc2ccc(C(F)(F)F)c(Cl)c2)NC(=O)CN(C)C(=O)[C@H](Cc2ccc(C)cc2)N(C)C(=O)[C@@H]2CCN2C(=O)[C@H](C)N(C)C1=O` [Compound 2165] ([NMeL]I[NMeA][Aze][NMePhe(4-Me)][Sar][hPhe(3-Cl-4-CF3)][NEtPhe(2-Cl)][Ac5c][NMeI][NMeD]-NMe2; lactam N-11), the IC50 worked out at 0.22 µM.

Values taken from patent US20240148821A1, “PHARMACEUTICAL USE OF CYCLIC PEPTIDE COMPOUND” (CHUGAI SEIYAKU KABUSHIKI KAISHA, priority 2021, published 2024).
